Results from patent US9951050B2, “Method of inhibiting DYRK1B” (4SC Discovery GmbH, priority 2013, dated 2018).
“Also recorded” adds a separate entry of the source.

What was measured:
[1] = molecular target: T1, DYRK1A (Homo sapiens, UniProt Q13627); assay: In vitro DYRK1A kinase assay (33P-ATP, DYRKtide substrate, Reaction Biology Corp.); assay type: biochemical; conditions: 10 μM ATP, 20 μM DYRKtide, 0.3 nM enzyme
T1 construct: full-; Insect; N-terminal; length; GST; GST (N); purchased Reaction Biology Corp; host or cells: Insect
Description: (§1) The assay was carried out by Reaction Biology Corp., Malverne, Pa., USA according to specifications by Reaction Biology Corp., as detailed herein below and further described in Anastassiadis et al., Nature Biotechnology, 29 (2011) 1039-1045.
(§2) DYRK1A: The substrate DYRKtide (synthetic peptide […]) (SEQ ID NO: 5) was dissolved in freshly prepared Base Reaction Buffer (20 mM Hepes (pH 7.5), 10 mM MgCl2, 1 mM EGTA, 0.02% Brij35, 0.02 mg/ml BSA, 0.1 mM Na3VO4, 2 mM DTT, 1% DMSO) at a concentration of 20 μM. DYRK1A was added to the substrate solution in a concentration of 0.3 nM and gently mixed. Compound dilution series in DMSO were added to the reaction, followed 20 min later by addition of a mixture of ATP and ^33P ATP (0.01 μCi/μl final) to a final concentration of 10 μM. Reactions proceeded at 25° C. for 120 min, followed by spotting onto P81 ion exchange filter paper. Unbound phosphate was removed by extensive washing of the filters in 0.75% phosphoric acid. […] IC50 values and curve fits were obtained using Prism (Graph Pad Software).
(§3) DYRK1A and DYRK1B used in the above assays are further described in the below table: […]

[2] = molecular target: T2, DYRK1B (Homo sapiens, UniProt Q9Y463); assay: In vitro DYRK1B kinase assay (33P-ATP, DYRKtide substrate, Reaction Biology Corp.); assay type: biochemical; conditions: 10 μM ATP, 20 μM DYRKtide
T2 construct: full-; Insect; N-terminal; length; GST; GST (N); purchased Reaction Biology Corp; host or cells: Insect
Description: as §1, §2
The assay for DYRK1B was carried out as described above for DYRK1A, with the exception that instead of DYRK1A, DYRK1B was added to the substrate solution and gently mixed.
as §3

[3] = system: Hedgehog signaling pathway (GLI1, GLI2, PTCH1 expression) in DAOY cells; assay: Western blot / qPCR of Hedgehog target genes in SAG-stimulated DAOY medulloblastoma cells; assay type: cell-based, human; conditions: for HH signaling / GLI target gene activation: SAG stimulated DAOY cells, Harmine 10 or 25 μM, Cpd P 1 or 5 μM; for GLI1 protein expression: Western blot
Description: (§4) DAOY cells (ATCC) were grown in MEM media (PAA Laboratories, Germany) supplemented with 10% fetal bovine serum (FBS) (PAA Laboratories, Germany), penicillin (62.5 μg/ml) and streptomycin ([…]) at 37° C. in an atmosphere containing 5% CO2. BSZ2 cells (So et al., 2006) were grown in 154-CF media (Life Technologies, UK) supplemented with 2% heat inactivated (56° C. for 30 minutes) and chelexed fetal bovine serum (FBS) (PAA Laboratories, Germany) (FBS was chelexed by adding to 50 mL FBS 10 g Chelex 100 (Bio-Rad Laboratories GmbH, Germany) followed by stirring for 60 min at RT; chelexed FBS was sterile filtered prior to use), penicillin (62.5 μg/ml) and streptomycin ([…]) at 37° C. in an atmosphere containing 5% CO2. Panc-1 and A673 cells (ATCC) were grown in DMEM media (PAA Laboratories, Germany) supplemented with 10% fetal bovine serum (FBS) (PAA Laboratories, Germany), penicillin (62.5 μg/ml) and streptomycin ([…]) at 37° C. in an atmosphere containing 5% CO2. For 3-dimensional (3D) cultures, 5×10^3 cells were seeded in 12-well plates in 0.4% select agar on top of 0.5% bottom select agar (Life Technologies, Germany) according to standard protocols of anchorage independent growth assays (Eberl et al., 2012). 3D cultures were grown for 4-6 weeks at 37° C. in a humidified atmosphere containing 5% CO2. Colony formation was documented on a stereomicroscope with Cell^D Image capture system (Olympus) and quantified using Colony Counter Software (Microtec Nition, Japan). SAG (smoothened agonist, N-Methyl-N′-(3-pyridinylbenzyl)-N′-(3-chlorobenzo[b]thiophene-2-carbonyl)-1,4-diaminocyclohexane) (Axxora LCC), Harmine (Fisher Scientific), GDC-0449 (LC Laboratories), GANT61 (Merck Chemicals Ltd.) and 4SC Compound P (4SC Discovery GmbH, Germany) were dissolved in DMSO. The final DMSO concentration in all wild-type DAOY samples was 0.2%, in all other cell line experiments including DAOY shSUFU cells 0.1%.
Total RNA was isolated using TRI-reagent (Molecular Research Center Inc.) followed by LiCl purification step. For this purpose, total RNA was dissolved in 100 mM Hepes pH 7.4/6M Urea and selectively precipitated by adding LiCl to a final concentration of 3M and incubating for 2 h at −20° C. Precipitated and purified RNA was used for cDNA synthesis using Superscript II reverse transcriptase (Life Technologies, Germany) according to the manufacturer's instructions. qPCR was done on a Rotorgene3000 (Qiagen, Germany) using iQ Sybr Green Supermix reagent (Bio-Rad Laboratories, UK). For qPCR analysis the following primer pairs (Microsynth AG, Switzerland) were used:
For Western blot analysis, cells were lysed in Laemmli buffer supplemented with PhosStop (Roche, Germany) and cOmplete EDTA-free Protease Inhibitor Cocktail (Roche, Germany). Proteins were visualized with horseradish peroxidase-conjugated secondary antibodies in combination with enhanced chemiluminescence detection system (GE Health Care, USA).
To address the effect of selected gene perturbations on canonical endogenous Hedgehog signaling in a human cancer cell line, the human medulloblastoma cell line (DAOY, ATCC ident. HTB-186) showing full responsiveness to Hedgehog activation by Smoothened agonist (SAG) as evidenced by activation of the direct Hedgehog target gene GLI1, a reliable and robust indicator of Hedgehog signaling pathway activity (FIG. 1) (Chen et al., 2002).
SAG stimulated DAOY cells were treated with Harmine (7-MeO-1-Me-9H-pyrido[3,4-b]-indole) (dissolved at room temperature as 25 mM stock solution in DMSO and used at final concentration of 10 μM or 25 μM), a naturally occurring DYRK1 inhibitor, as well as with Compound P (Cpd P, dissolved at room temperature in DMSO as 20 mM stock solution and used at final concentration of 1 μM or 5 μM, respectively), a small molecule inhibitor of DYRK1, which is structurally unrelated to Harmine.

[4] = system: GLI1 and PTCH1 expression in DAOY shSUFU cells; assay: Western blot / qPCR in SUFU knockdown (shSUFU) DAOY cells, SMO-independent GLI activation; assay type: cell-based, human; conditions: for PTCH1 mRNA expression: qPCR
Description: as §4
In the examples of the present invention, RNAi knockdown experiments were facilitated by lentiviral RNAi production and transductions, which were carried out as described in Kasper et al, 2007, which is incorporated herein by reference (Kasper et al., 2007). The following shRNA constructs (Sigma Aldrich mission TRC library) were used and the following abbreviations are used herein: shRNA DYRK1A (TRCN0000000526), shRNA DYRK1B-1 (TRCN0000002139), shRNA DYRK1B-2 (TRCN0000355722), shSUFU (TRCN0000019466) and control scrambled shRNA (SHC002). […] Transduced cells were selected for puromycin resistance prior to further analysis.
Total RNA was isolated using TRI-reagent (Molecular Research Center Inc.) followed by LiCl purification step. […]

[5] = system: GLI1 protein expression in PANC1 cells; assay: Western blot of PANC1 pancreatic cancer cells; assay type: cell-based, human; conditions: for GLI1 protein expression: GDC-0449 0.5 μM
Description: as §4, with “0.1%. […]” for “0.1%.”
(§5) The function of DYRK1 isoforms in SMO-independent/GLI-dependent pancreatic cancer and Ewing's sarcoma (EWS) cell lines PANC1 and A673, respectively, was analyzed. […]

[6] = system: GLI1 protein expression in A673 cells; assay: Western blot of Ewing sarcoma cell line A673; assay type: cell-based, human; conditions: for GLI1 protein expression: GDC-0449 0.5 μM
Description: as §4, with “0.1%. […]” for “0.1%.”
as §5

[7] = system: tumor-initiating PANC1 pancreatic cancer cells; assay: Anchorage-independent 3D culture clonal growth (tumorsphere) assay, PANC1; assay type: cell-based, human; conditions: PANC1, anchorage-independent 3D cultures
Description: (§6) DAOY cells (ATCC) were grown in MEM media (PAA Laboratories, Germany) supplemented with 10% fetal bovine serum (FBS) (PAA Laboratories, Germany), penicillin (62.5 μg/ml) and streptomycin ([…]) at 37° C. in an atmosphere containing 5% CO2. BSZ2 cells (So et al., 2006) were grown in 154-CF media (Life Technologies, UK) supplemented with 2% heat inactivated (56° C. for 30 minutes) and chelexed fetal bovine serum (FBS) (PAA Laboratories, Germany) (FBS was chelexed by adding to 50 mL FBS 10 g Chelex 100 (Bio-Rad Laboratories GmbH, Germany) followed by stirring for 60 min at RT; chelexed FBS was sterile filtered prior to use), penicillin (62.5 μg/ml) and streptomycin ([…]) at 37° C. in an atmosphere containing 5% CO2. Panc-1 and A673 cells (ATCC) were grown in DMEM media (PAA Laboratories, Germany) supplemented with 10% fetal bovine serum (FBS) (PAA Laboratories, Germany), penicillin (62.5 μg/ml) and streptomycin ([…]) at 37° C. in an atmosphere containing 5% CO2. […] Colony formation was documented on a stereomicroscope with Cell^D Image capture system (Olympus) and quantified using Colony Counter Software (Microtec Nition, Japan). […]

[8] = system: tumor-initiating L3.6pl pancreatic cancer cells; assay: Anchorage-independent 3D culture clonal growth (tumorsphere) assay, L3.6pl; assay type: cell-based; conditions: anchorage-independent 3D cultures
[9] = system: GLI1 expression in BSZ2 cells; assay: Western blot of GLI1 in Ptch-/- BCC cells (BSZ2); assay type: cell-based; conditions: mouse Ptch-/- BCC cells (BSZ2)
Description: as §6

[10] = DAOY cells, 100 nM SAG 48 hours, starving conditions

T2 sequence (Q9Y463 whole entry): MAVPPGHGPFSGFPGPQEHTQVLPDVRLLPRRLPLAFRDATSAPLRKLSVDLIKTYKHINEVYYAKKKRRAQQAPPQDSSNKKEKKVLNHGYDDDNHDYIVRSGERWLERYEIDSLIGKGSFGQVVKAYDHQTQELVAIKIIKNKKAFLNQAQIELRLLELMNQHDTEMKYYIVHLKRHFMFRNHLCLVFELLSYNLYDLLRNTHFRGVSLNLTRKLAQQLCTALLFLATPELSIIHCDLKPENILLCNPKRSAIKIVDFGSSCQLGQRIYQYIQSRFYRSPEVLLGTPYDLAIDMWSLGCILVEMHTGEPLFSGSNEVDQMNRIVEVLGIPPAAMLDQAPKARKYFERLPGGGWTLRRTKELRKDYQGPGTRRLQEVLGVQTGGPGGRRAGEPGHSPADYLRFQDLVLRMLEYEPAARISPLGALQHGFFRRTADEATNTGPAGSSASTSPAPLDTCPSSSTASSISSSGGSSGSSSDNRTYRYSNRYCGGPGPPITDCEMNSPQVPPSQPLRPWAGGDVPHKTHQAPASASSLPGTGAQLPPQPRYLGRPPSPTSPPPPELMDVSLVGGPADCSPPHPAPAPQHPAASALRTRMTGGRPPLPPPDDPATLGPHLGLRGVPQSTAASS

| IC50 [1] | IC50 [2] | Structure (SMILES) | HH signaling / GLI target gene activation [3] | GLI1 protein expression [3, 10] | GLI1 mRNA expression [4] | PTCH1 mRNA expression [4] | GLI1 expression (protein) ([4]; Western blot) | GLI1 protein expression [5] | GLI1 protein expression [6] | clonal growth (sphere numbers) [7] | clonal growth (sphere numbers) [8] | PTCH1 mRNA expression ([3]; qPCR, DAOY cells, 100 nM SAG 48 hours, starving conditions) | GLI1 expression [9] | Beta Catenin and STAT3 expression [5] | Beta Catenin expression [6] |
| --- | --- | --- | --- | --- | --- | --- | --- | --- | --- | --- | --- | --- | --- | --- | --- |
| 22.2 nM | 54.8 nM | FC(F)(F)c1ccc2[nH]c(Nc3ncccn3)nc2c1 [Compound P, N-(pyrimidin-2-yl)-5-(trifluoromethyl)-1H-benzo[d]imidazol-2-amine] | significant reduction | significantly inhibited | – | – | – | – | – | – | – | – | – | – | – |
| – | – | CN(C)c1ccccc1CN1CCCN(Cc2ccccc2N(C)C)C1c1ccncc1 [GANT61, 2,2′-[[Dihydro-2-(4-pyridinyl)-1,3(2H,4H)-pyrimidinediyl]bis-(methylene)]bis[N,N-dimethylbenzenamine)] | – | – | down-regulation | down-regulation; also recorded: sensitive | – | – | – | – | – | – | – | – | – |
| – | – | CS(=O)(=O)c1ccc(C(=O)Nc2ccc(Cl)c(-c3ccccn3)c2)c(Cl)c1 [GDC-0449, 2-chloro-N-(4-chloro-3-(pyridin-2-yl)phenyl)-4-(methylsulfonyl)benzamide] | – | efficiently blocked | – | resistant | unaffected; also recorded: resistant | resistance; also recorded: inability | inability | not and did not affect | not | – | – | – | – |
| – | – | COc1ccc2c(c1)[nH]c1c(C)nccc12 [Harmine, 7-MeO-1-Me-9H-pyrido[3,4-b]-indole] | significant reduction | significantly inhibited | – | – | – | reduces; also recorded: reduced levels of GLI1 | reduces; also recorded: reduced levels of GLI1 | reduces sphere numbers; also recorded: reduced clonogenic growth | reduces sphere numbers | significantly inhibited | reduced GLI1 expression | essentially unaffected | essentially unaffected |
